Laboratory results as given in patent publication US20110245164A1 (INDIANA UNIVERSITY RESEARCH AND TECHNOLOGY, published 2011).
Non-standard residues stand in square brackets, D forms with d. Residues, ends and D or L forms follow the SMILES beside them. Groups on a side chain read outwards from the residue. *: point of attachment. Phe(4-NH2) = Nc1ccc(C[C@H](N)C(=O)O)cc1; X1 = CCCCCCN(CC(=O)*)C(=O)[C@H](N)CCCCN; Aib = CC(C)(N)C(=O)O; Sar = CNCC(=O)O

Experiments:
[1] = molecular target: T1, Insulin Receptor (Homo sapiens, UniProt P06213); assay: Insulin receptor phosphorylation assay (receptor transfected HEK293 cells); assay type: cell-based; set-up: expressed in transfected cells; host or cells: HEK293; details: Table 10; IGF-1 receptor EC50 versus insulin receptor EC50
[2] = molecular target: T1, Insulin Receptor; assay: Insulin receptor binding assay (competition, scintillation proximity); details: Table 9; IGF-1 receptor IC50 versus insulin receptor IC50
[3] = Dipeptide half life on IGF1 dipeptide extended (p-NH2-F)A19 amide derivatives in PBS (HPLC); assay type: physicochemical
Procedure: IGF-1 peptides was measured to determine the impact of the peptide sequence or heteroduplex on the dipeptide cleavage.
Accordingly, the IGF1A chain alone was determined to be a good model for the study of pro-drug half life on IGF1 B:A (Y^B16L^B17) derivative peptides. […] For simplicity, prodrug half lives were determined using only the IGF1 A chain in the absence of the B chain. The half lives of each propeptide was determined as described in Example 5.
The IGF^B16B17 derivative peptide prodrugs were incubated in PBS, pH 7.4 at 37° C. and at predetermined time intervals an aliquot was taken and further degradation was quenched with 0.1% TFA and the aliquot was subjected to analytical HPLC analysis. Peaks a and b, representing the prodrug and active forms of the IGF^B16B17 derivative peptide were identified with LC-MS and quantified by integration of peak area an HPLC. FIGS. 9A-9C show the output of an HPLC analysis of the degradation of the IGF^B16B17 derivativepeptide prodrug: IGF1A(Ala)^6,7,11,20(Aib-Pro-pNH-F)^19. Aliquots were taken at 20 minutes (FIG. 9A), 81 minutes (FIG. 9B) and 120 minutes (FIG. 9C) after beginning the incubation of the prodrug in PBS.

T1 sequence (P06213 28-758 limits assumed): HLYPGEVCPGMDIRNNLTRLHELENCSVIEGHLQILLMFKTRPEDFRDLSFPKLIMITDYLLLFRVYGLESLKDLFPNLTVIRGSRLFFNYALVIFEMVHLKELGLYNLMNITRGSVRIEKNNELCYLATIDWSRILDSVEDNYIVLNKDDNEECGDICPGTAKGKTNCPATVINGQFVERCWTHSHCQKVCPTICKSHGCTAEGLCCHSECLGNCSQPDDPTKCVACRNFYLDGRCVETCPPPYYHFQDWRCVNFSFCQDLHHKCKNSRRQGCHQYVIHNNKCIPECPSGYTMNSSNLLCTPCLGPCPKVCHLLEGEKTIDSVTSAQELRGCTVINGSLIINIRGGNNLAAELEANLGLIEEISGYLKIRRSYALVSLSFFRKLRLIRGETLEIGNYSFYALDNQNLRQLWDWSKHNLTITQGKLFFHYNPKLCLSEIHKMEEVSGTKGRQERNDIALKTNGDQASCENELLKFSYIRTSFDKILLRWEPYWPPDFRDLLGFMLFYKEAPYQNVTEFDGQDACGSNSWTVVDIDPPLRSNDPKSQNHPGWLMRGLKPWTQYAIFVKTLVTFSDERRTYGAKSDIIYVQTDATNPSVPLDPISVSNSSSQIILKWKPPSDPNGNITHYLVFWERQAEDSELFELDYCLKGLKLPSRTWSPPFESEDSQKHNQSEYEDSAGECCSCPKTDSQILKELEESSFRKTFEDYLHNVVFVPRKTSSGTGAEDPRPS
T1 sequence (P06213 763-1382 partner limits assumed): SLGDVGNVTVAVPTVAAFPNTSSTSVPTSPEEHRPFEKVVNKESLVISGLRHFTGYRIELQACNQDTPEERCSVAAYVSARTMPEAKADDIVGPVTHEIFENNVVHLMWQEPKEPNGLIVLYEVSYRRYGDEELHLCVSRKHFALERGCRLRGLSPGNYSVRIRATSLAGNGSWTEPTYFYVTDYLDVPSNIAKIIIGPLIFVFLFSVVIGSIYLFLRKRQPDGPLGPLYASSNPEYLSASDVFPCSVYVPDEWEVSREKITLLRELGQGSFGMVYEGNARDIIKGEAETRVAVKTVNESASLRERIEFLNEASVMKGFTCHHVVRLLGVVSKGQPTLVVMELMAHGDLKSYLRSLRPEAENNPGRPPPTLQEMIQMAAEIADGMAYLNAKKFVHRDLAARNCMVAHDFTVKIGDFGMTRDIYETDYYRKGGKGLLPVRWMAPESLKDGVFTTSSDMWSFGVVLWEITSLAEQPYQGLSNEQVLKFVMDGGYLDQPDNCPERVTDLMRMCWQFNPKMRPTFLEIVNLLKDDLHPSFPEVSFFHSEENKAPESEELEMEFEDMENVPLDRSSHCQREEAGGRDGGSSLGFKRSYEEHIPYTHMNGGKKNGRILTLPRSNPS

Selective Ratio [1]	Half Life ([3]; buffer)	Half Life, PBS ([3]; buffer)	SMILES	further results
2.81	–	–	CC[C@H](C)[C@H](NC(=O)CN)C(=O)N[C@H](C(=O)N[C@@H](CC(=O)O)C(=O)N[C@@H](CCC(=O)O)C(=O)N[C@H]1CSSC[C@@H]2NC(=O)[C@H](CO)NC(=O)[C@H](C)NC(=O)[C@H](Cc3c[nH]cn3)NC(=O)[C@H](CSSC[C@H](NC(=O)[C@H](CC(C)C)NC(=O)[C@H](Cc3c[nH]cn3)NC(=O)[C@H](CCC(=O)O)NC(=O)[C@@H]3CCCN3C(=O)CN)C(=O)NCC(=O)N[C@@H](C)C(=O)N[C@@H](CC(=O)O)C(=O)N[C@@H](CC(C)C)C(=O)N[C@@H](C(C)C)C(=O)N[C@@H](CC(=O)O)C(=O)N[C@@H](C)C(=O)N[C@@H](CC(C)C)C(=O)N[C@@H](Cc3ccc(O)cc3)C(=O)N[C@@H](CC(C)C)C(=O)N[C@@H](C(C)C)C(=O)N[C@H](C(=O)NCC(=O)N[C@@H](CC(=O)O)C(=O)N[C@@H](CCCNC(=N)N)C(=O)NCC(=O)N[C@@H](Cc3ccccc3)C(=O)N[C@@H](Cc3ccc(O)cc3)C(N)=O)CSSC[C@@H](C(=O)N[C@@H](CC(N)=O)C(=O)O)NC(=O)[C@H](Cc3ccc(O)cc3)NC(=O)[C@H](CCSC)NC(=O)[C@H](CCC(=O)O)NC(=O)[C@H](CC(C)C)NC(=O)[C@H](CCCNC(=N)N)NC(=O)[C@H](CCCNC(=N)N)NC(=O)[C@H](CC(C)C)NC(=O)[C@H](CC(=O)O)NC2=O)NC1=O)C(C)C	–
–	–	–	CC[C@H](C)[C@H](NC(=O)CN)C(=O)N[C@H](C(=O)N[C@@H](CC(=O)O)C(=O)N[C@@H](CCC(=O)O)C(=O)N[C@H]1CSSC[C@@H]2NC(=O)[C@H](CO)NC(=O)[C@H](CCCNC(=N)N)NC(=O)[C@H](Cc3ccccc3)NC(=O)[C@H](CSSC[C@H](NC(=O)[C@H](CC(C)C)NC(=O)[C@@H](NC(=O)[C@H](CCC(=O)O)NC(=O)[C@@H]3CCCN3C(=O)CN)[C@@H](C)O)C(=O)NCC(=O)N[C@@H](C)C(=O)N[C@@H](CCC(=O)O)C(=O)N[C@@H](CC(C)C)C(=O)N[C@@H](C(C)C)C(=O)N[C@@H](CC(=O)O)C(=O)N[C@@H](C)C(=O)N[C@@H](CC(C)C)C(=O)N[C@@H](Cc3ccc(O)cc3)C(=O)N[C@@H](CC(C)C)C(=O)N[C@@H](C(C)C)C(=O)N[C@H](C(=O)NCC(=O)N[C@@H](CC(=O)O)C(=O)N[C@@H](CCCNC(=N)N)C(=O)NCC(=O)N[C@@H](Cc3ccccc3)C(=O)N[C@@H](Cc3ccc(O)cc3)C(N)=O)CSSC[C@@H](C(=O)N[C@@H](C)C(N)=O)NC(=O)[C@H](Cc3ccc(O)cc3)NC(=O)[C@H](CCSC)NC(=O)[C@H](CCC(=O)O)NC(=O)[C@H](CC(C)C)NC(=O)[C@H](CCCNC(=N)N)NC(=O)[C@H](CCCNC(=N)N)NC(=O)[C@H](CC(C)C)NC(=O)[C@H](CC(=O)O)NC2=O)NC1=O)C(C)C [IGF-1 A:B (E10Y16L17) DPI]	Ratio [2]: 60.2
–	21.8 h	21.8 h	CC[C@H](C)[C@H](NC(=O)CN)C(=O)N[C@H](C(=O)N[C@@H](CC(=O)O)C(=O)N[C@@H](CCC(=O)O)C(=O)N[C@@H](C)C(=O)N[C@@H](C)C(=O)N[C@@H](Cc1ccccc1)C(=O)N[C@@H](CCCNC(=N)N)C(=O)N[C@@H](CO)C(=O)N[C@@H](C)C(=O)N[C@@H](CC(=O)O)C(=O)N[C@@H](CC(C)C)C(=O)N[C@@H](CCCNC(=N)N)C(=O)N[C@@H](CCCNC(=N)N)C(=O)N[C@@H](CC(C)C)C(=O)N[C@@H](CCC(=O)O)C(=O)N[C@@H](CCSC)C(=O)N[C@@H](Cc1ccc(NC(=O)CN(C)C(=O)[C@@H](N)CCCCN)cc1)C(=O)N[C@@H](C)C(=O)N[C@@H](C)C(N)=O)C(C)C [K Sar] (H-GIVDEAAFRSADLRRLEM[Phe(4-NH2)]([Sar-Lys])AA-NH2)	–
9.75	–	–	CC[C@H](C)[C@H](NC(=O)CN)C(=O)N[C@H](C(=O)N[C@@H](CC(=O)O)C(=O)N[C@@H](CCC(=O)O)C(=O)N[C@H]1CSSC[C@@H]2NC(=O)[C@H](CO)NC(=O)[C@H](CCCNC(=N)N)NC(=O)[C@H](Cc3ccccc3)NC(=O)[C@H](CSSC[C@H](NC(=O)[C@H](CC(C)C)NC(=O)[C@@H](NC(=O)[C@H](CCC(=O)O)NC(=O)[C@@H]3CCCN3C(=O)CN)[C@@H](C)O)C(=O)NCC(=O)N[C@@H](C)C(=O)N[C@@H](CC(=O)O)C(=O)N[C@@H](CC(C)C)C(=O)N[C@@H](C(C)C)C(=O)N[C@@H](CC(=O)O)C(=O)N[C@@H](C)C(=O)N[C@@H](CC(C)C)C(=O)N[C@@H](Cc3ccc(O)cc3)C(=O)N[C@@H](CC(C)C)C(=O)N[C@@H](C(C)C)C(=O)N[C@H](C(=O)NCC(=O)N[C@@H](CC(=O)O)C(=O)N[C@@H](CCCNC(=N)N)C(=O)NCC(=O)N[C@@H](Cc3ccccc3)C(=O)N[C@@H](Cc3ccc(O)cc3)C(N)=O)CSSC[C@@H](C(=O)N[C@@H](C)C(=O)O)NC(=O)[C@H](Cc3ccc(O)cc3)NC(=O)[C@H](CCSC)NC(=O)[C@H](CCC(=O)O)NC(=O)[C@H](CC(C)C)NC(=O)[C@H](CCCNC(=N)N)NC(=O)[C@H](CCCNC(=N)N)NC(=O)[C@H](CC(C)C)NC(=O)[C@H](CC(=O)O)NC2=O)NC1=O)C(C)C [IGF-1 A:B(D10Y16L17) DPI A-COOH]	–
–	–	–	CCCCCCN(CC(=O)Nc1ccc(C[C@H](NC(=O)[C@H](CCSC)NC(=O)[C@H](CCC(=O)O)NC(=O)[C@H](CC(C)C)NC(=O)[C@H](CCCNC(=N)N)NC(=O)[C@H](CCCNC(=N)N)NC(=O)[C@H](CC(C)C)NC(=O)[C@H](CC(=O)O)NC(=O)[C@H](C)NC(=O)[C@H](CO)NC(=O)[C@H](CCCNC(=N)N)NC(=O)[C@H](Cc2ccccc2)NC(=O)[C@H](C)NC(=O)[C@H](C)NC(=O)[C@H](CCC(=O)O)NC(=O)[C@H](CC(=O)O)NC(=O)[C@@H](NC(=O)[C@@H](NC(=O)CN)[C@@H](C)CC)C(C)C)C(=O)N[C@@H](C)C(=O)N[C@@H](C)C(N)=O)cc1)C(=O)[C@H](N)CCCCN [dK N-hexyl Gly] (H-GIVDEAAFRSADLRRLEM[Phe(4-NH2)](X1)AA-NH2; N-terminus assumed)	half-life ([3]; buffer, pH 7.4): 10.6 h
–	1.9 h	2.1 h	CC[C@H](C)[C@H](NC(=O)CN)C(=O)N[C@H](C(=O)N[C@@H](CC(=O)O)C(=O)N[C@@H](CCC(=O)O)C(=O)N[C@@H](C)C(=O)N[C@@H](C)C(=O)N[C@@H](Cc1ccccc1)C(=O)N[C@@H](CCCNC(=N)N)C(=O)N[C@@H](CO)C(=O)N[C@@H](C)C(=O)N[C@@H](CC(=O)O)C(=O)N[C@@H](CC(C)C)C(=O)N[C@@H](CCCNC(=N)N)C(=O)N[C@@H](CCCNC(=N)N)C(=O)N[C@@H](CC(C)C)C(=O)N[C@@H](CCC(=O)O)C(=O)N[C@@H](CCSC)C(=O)N[C@@H](Cc1ccc(NC(=O)[C@H]2CCCN2C(=O)C(C)(C)N)cc1)C(=O)N[C@@H](C)C(=O)N[C@@H](C)C(N)=O)C(C)C [AiB dPro] (H-GIVDEAAFRSADLRRLEM[Phe(4-NH2)]([dP-Aib])AA-NH2)	–
–	2.2 h	2.2 h	CC[C@H](C)[C@H](NC(=O)CN)C(=O)N[C@H](C(=O)N[C@@H](CC(=O)O)C(=O)N[C@@H](CCC(=O)O)C(=O)N[C@@H](C)C(=O)N[C@@H](C)C(=O)N[C@@H](Cc1ccccc1)C(=O)N[C@@H](CCCNC(=N)N)C(=O)N[C@@H](CO)C(=O)N[C@@H](C)C(=O)N[C@@H](CC(=O)O)C(=O)N[C@@H](CC(C)C)C(=O)N[C@@H](CCCNC(=N)N)C(=O)N[C@@H](CCCNC(=N)N)C(=O)N[C@@H](CC(C)C)C(=O)N[C@@H](CCC(=O)O)C(=O)N[C@@H](CCSC)C(=O)N[C@@H](Cc1ccc(NC(=O)[C@@H]2CCCN2C(=O)C(C)(C)N)cc1)C(=O)N[C@@H](C)C(=O)N[C@@H](C)C(N)=O)C(C)C [AiB Pro] (H-GIVDEAAFRSADLRRLEM[Phe(4-NH2)]([Pro-Aib])AA-NH2)	degradation of prodrug to active form (HPLC), in words ([3]; pH 7.4): spontaneous, non-enzymatic conversion

SMILES	Selective Ratio [1]	Half Life ([3]; buffer)	Half Life, PBS ([3]; buffer)	further results
CC[C@H](C)[C@H](NC(=O)CN)C(=O)N[C@H](C(=O)N[C@@H](CC(=O)O)C(=O)N[C@@H](CCC(=O)O)C(=O)N[C@H]1CSSC[C@@H]2NC(=O)[C@H](CO)NC(=O)[C@H](C)NC(=O)[C@H](Cc3c[nH]cn3)NC(=O)[C@H](CSSC[C@H](NC(=O)[C@H](CC(C)C)NC(=O)[C@H](Cc3c[nH]cn3)NC(=O)[C@H](CCC(=O)O)NC(=O)[C@@H]3CCCN3C(=O)CN)C(=O)NCC(=O)N[C@@H](C)C(=O)N[C@@H](CC(=O)O)C(=O)N[C@@H](CC(C)C)C(=O)N[C@@H](C(C)C)C(=O)N[C@@H](CC(=O)O)C(=O)N[C@@H](C)C(=O)N[C@@H](CC(C)C)C(=O)N[C@@H](Cc3ccc(O)cc3)C(=O)N[C@@H](CC(C)C)C(=O)N[C@@H](C(C)C)C(=O)N[C@H](C(=O)NCC(=O)N[C@@H](CC(=O)O)C(=O)N[C@@H](C)C(=O)NCC(=O)N[C@@H](Cc3ccccc3)C(=O)N[C@@H](Cc3ccc(O)cc3)C(N)=O)CSSC[C@@H](C(=O)N[C@@H](CC(N)=O)C(=O)O)NC(=O)[C@H](Cc3ccc(O)cc3)NC(=O)[C@H](CCSC)NC(=O)[C@H](CCC(=O)O)NC(=O)[C@H](CC(C)C)NC(=O)[C@H](CCCNC(=N)N)NC(=O)[C@H](CCCNC(=N)N)NC(=O)[C@H](CC(C)C)NC(=O)[C@H](CC(=O)O)NC2=O)NC1=O)C(C)C	32.54	–	–	–
